Data set [1] concerns the target Intestinal-type alkaline phosphatase (Homo sapiens, UniProt P09923). Kind of data set: inhibition of human intestinal alkaline phosphatase – biochemical, dose response (AID 488876). The data set is classed as functional.
The nature of data set [2]: MIN6 cell viability loss – mouse insulinoma, cytotoxicity control, dose response (AID 2122).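 Also: confirmatory high-throughput counterscreen run to flag cytotoxic compounds.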 The format is functional.
Data set [3] in a line: HIV-1 Vif–A3G interaction blockers – biochemical, TR-FRET, GST-Vif 1-94, biotin-A3G peptide, dose response retest, primary screen (AID 1117319).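 Also: TR-FRET signal of purified GST-Vif binding a biotinylated A3G peptide; inhibitors lower the FRET signal by blocking Vif and A3G binding.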 The data set is classed as functional. For orientation: Time-resolved FRET reads energy transfer from a long-lived donor to a nearby acceptor.
Data set [4] in a line: viability loss in Vero cells – cytotoxicity control for Vif-APOBEC3G degradation inhibitor project, dose response (AID 1117358). The format is functional. As to conditions: Vero.
Data set [5] is described as follows: decrease of insulin promoter-GFP reporter – imaging, high-content screening, mouse beta cells (AID 1628). The format is functional. As to conditions: MIN6.
The nature of data set [6]: viability loss in THP-1 monocytes – THP-1 cells, cytotoxicity control for Vif-APOBEC3G degradation inhibitor project, dose response (AID 1117359). As to conditions: THP-1. The data set is classed as functional.
Data set [7] is described as follows: viability of HCT116 lacking mutant beta-catenin – cell-based, human colon tumor, dose response (AID 1045).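 Also: HCT116 colon tumor cells with beta catenin knocked out; cells exposed to compound for 60 hours.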 The data set is classed as functional.
Data set [8] addresses Intestinal-type alkaline phosphatase (Mus musculus, UniProt P24822). The data set can be described thus: PubChem AID 488785. The format is functional.
Data set [9] has as its target T1, Alkaline phosphatase, tissue-nonspecific isozyme (Homo sapiens, UniProt P05186).
T1 sequence (P05186 whole entry): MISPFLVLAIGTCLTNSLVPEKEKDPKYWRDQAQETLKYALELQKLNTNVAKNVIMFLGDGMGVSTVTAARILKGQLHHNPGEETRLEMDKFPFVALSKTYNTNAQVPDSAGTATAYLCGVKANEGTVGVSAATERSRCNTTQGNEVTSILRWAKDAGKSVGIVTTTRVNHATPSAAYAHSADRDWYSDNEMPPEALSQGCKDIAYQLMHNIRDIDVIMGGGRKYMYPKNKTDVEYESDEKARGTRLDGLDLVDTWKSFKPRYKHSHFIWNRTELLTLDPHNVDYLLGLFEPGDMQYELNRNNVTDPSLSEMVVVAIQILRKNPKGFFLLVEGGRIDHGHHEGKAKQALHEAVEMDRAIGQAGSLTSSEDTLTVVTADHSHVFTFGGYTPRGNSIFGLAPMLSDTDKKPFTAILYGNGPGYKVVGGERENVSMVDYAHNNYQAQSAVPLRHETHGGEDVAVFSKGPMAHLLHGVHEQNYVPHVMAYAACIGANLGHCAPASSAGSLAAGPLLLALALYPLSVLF
Kind of data set: TNAP enzyme inhibition by screening hits, dose response, selectivity assay for mouse IAP inhibitor project, biochemical, human TNAP, uHTS hits (AID 488906). The data set is classed as functional.

In data set [10] the target is T2, Histone-lysine N-methyltransferase NSD2 (Homo sapiens, UniProt O96028).
T2 sequence (O96028 whole entry): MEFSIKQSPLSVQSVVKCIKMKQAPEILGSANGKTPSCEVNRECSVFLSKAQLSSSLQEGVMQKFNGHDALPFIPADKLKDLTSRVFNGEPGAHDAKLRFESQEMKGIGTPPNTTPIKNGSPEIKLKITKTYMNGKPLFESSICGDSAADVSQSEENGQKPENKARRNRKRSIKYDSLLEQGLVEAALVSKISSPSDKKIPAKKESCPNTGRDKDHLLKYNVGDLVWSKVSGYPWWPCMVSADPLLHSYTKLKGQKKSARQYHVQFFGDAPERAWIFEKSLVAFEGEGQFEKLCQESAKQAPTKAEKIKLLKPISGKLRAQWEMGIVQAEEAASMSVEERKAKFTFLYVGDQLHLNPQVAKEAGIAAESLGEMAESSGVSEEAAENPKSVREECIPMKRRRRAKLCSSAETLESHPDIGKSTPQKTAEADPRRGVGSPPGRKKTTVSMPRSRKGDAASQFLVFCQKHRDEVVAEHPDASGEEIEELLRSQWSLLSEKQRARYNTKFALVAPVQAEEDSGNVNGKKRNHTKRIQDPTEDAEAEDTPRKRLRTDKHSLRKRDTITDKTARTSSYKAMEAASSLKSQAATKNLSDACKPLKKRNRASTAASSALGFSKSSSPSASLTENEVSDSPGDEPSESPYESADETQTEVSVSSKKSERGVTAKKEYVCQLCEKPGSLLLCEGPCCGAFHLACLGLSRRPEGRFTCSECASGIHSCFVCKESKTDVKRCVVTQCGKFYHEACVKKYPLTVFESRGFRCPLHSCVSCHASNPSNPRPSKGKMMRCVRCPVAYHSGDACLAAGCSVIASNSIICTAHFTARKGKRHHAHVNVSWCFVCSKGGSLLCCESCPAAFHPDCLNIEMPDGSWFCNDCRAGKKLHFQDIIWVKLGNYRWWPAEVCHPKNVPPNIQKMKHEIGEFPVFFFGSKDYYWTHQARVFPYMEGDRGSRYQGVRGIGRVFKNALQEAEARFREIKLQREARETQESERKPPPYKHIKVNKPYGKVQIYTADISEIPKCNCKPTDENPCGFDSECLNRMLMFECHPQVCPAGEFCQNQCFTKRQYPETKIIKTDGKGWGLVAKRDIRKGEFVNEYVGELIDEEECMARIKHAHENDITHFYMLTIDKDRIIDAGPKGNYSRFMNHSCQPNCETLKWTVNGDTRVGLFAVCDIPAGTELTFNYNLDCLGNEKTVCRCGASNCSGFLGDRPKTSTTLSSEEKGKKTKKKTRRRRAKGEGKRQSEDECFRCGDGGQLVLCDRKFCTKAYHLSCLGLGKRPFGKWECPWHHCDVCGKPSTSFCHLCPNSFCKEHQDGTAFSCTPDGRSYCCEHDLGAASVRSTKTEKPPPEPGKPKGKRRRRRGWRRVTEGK
The data set is classed as biochemical.

The nature of data set [11]: viability of PTEN-deleted HCT116 cells – cell-based, HCT116 PTEN knockout, dose response (AID 1047).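 Also: HCT116 colon tumor cells with PTEN knocked out; cells exposed to compound for 60 hours before readout; potency for loss of cell viability measured by luminescence.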 The format is functional.
Data set [12] in a line: suppression of NO production in INS-1E cells – cell-based, Griess absorbance, dry powder, set 3, dose response (AID 488870). Conditions: Rattus norvegicus. The data set is classed as functional. (In general: The Griess reaction detects nitrite, a stable product of nitric oxide.)
Data set [13] deals with T3, Apoptotic protease-activating factor 1 (Homo sapiens, UniProt O14727).
T3 sequence (O14727 whole entry): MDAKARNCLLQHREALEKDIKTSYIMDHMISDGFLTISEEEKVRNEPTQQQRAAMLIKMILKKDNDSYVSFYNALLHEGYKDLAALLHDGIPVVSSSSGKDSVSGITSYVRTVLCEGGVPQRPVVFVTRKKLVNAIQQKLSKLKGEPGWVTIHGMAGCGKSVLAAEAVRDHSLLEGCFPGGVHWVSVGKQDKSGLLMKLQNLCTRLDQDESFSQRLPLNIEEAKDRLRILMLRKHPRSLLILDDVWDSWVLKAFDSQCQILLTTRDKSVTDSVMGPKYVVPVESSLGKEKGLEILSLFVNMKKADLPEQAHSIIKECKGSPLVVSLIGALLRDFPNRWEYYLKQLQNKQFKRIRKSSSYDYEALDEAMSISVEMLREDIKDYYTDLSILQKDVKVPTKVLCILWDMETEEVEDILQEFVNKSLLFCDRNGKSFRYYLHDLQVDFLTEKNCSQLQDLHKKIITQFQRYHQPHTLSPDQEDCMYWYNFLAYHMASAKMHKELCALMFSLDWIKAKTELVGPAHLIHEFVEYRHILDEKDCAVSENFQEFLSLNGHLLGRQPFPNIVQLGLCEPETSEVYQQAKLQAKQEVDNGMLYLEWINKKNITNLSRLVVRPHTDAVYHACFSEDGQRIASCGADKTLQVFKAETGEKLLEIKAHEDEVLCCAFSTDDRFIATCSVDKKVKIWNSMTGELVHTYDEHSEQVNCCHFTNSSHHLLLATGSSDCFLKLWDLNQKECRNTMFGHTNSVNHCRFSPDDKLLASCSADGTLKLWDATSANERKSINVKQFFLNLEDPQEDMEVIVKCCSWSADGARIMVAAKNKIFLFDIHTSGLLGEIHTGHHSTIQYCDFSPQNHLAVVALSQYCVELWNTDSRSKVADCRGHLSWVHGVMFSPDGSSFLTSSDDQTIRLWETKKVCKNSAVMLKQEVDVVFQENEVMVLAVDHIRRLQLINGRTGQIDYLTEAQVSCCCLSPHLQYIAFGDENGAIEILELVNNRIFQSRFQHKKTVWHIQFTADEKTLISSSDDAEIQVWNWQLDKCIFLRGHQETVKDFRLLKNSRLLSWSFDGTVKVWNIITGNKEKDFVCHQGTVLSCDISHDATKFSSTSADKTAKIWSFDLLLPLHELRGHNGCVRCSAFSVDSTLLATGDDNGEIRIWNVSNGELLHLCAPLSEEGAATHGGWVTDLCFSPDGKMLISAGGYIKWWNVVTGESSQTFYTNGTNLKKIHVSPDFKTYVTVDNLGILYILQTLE
Kind of data set: activation of Apaf-1 mediated apoptosis – fluorescent, uHTS hits, dose response (AID 588554). The data set is classed as functional.

The target in data set [14] is 1-phosphatidylinositol 4,5-bisphosphate phosphodiesterase gamma-1 (Homo sapiens, UniProt P19174). The data set can be described thus: Counterscreen for inhibitors of phospholipase C isozymes (PLC-B3): Fluorescence-based biochemical high throughput dose response assay to identify inhibitors of phospholipase C isozymes (PLC-gamma1). (A counterscreen serves to expose hits that act by an unwanted route or on another target.)

Data set [15] deals with 1-phosphatidylinositol 4,5-bisphosphate phosphodiesterase beta-3 (Homo sapiens, UniProt Q01970). The data set can be described thus: Fluorescence-based biochemical high throughput dose response assay to identify inhibitors of phospholipase C isozymes (PLC-B3).
Data set [16] addresses NAD-dependent protein deacylase sirtuin-5, mitochondrial (Homo sapiens, UniProt Q9NXA8). Kind of data set: sirtuin-5 deacylation blockers, concentration series – biochemical, fluorescence imaging, cherry-pick, set 5, dose response (AID 720591).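 Also: desuccinylation of succinyl peptide AMC substrate read as fluorescence after trypsin release; potency of inhibitors that lower fluorescence and may act on trypsin instead.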
The target in data set [17] is T4, Small ubiquitin-related modifier 1 (Homo sapiens, UniProt P63165). Kind of data set: SUMO1 protein-protein binding blockers, potency – biochemical, FRET, dose response (AID 624383). The data set is classed as functional. As to conditions: read-out: IC50_Mean.
Data set [18] addresses T4, Small ubiquitin-related modifier 1. Kind of data set: SUMO1 protein interaction blockers, potency – biochemical, fluorescence polarization, uHTS hits, dose response (AID 624382). Conditions: read-out: IC50_Mean. The data set is classed as functional.
Another data set deals with T5, Cytochrome P450 1A2 (Homo sapiens, UniProt P05177).
T5 sequence (P05177 whole entry): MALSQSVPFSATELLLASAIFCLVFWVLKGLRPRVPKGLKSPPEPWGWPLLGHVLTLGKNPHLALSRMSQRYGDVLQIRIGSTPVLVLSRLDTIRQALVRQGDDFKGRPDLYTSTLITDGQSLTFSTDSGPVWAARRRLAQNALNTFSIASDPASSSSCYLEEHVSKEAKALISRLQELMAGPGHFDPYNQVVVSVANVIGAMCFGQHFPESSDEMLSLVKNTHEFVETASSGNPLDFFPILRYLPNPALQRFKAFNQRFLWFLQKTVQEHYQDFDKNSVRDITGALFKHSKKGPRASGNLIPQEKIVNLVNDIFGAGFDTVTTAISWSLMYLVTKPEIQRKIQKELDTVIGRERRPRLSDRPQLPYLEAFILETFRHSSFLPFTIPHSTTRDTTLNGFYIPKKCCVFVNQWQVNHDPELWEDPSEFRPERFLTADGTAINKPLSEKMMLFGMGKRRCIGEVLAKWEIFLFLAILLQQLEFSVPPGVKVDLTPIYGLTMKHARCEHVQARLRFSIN

For a further data set, the target named is Cytochrome P450 2C19 (Homo sapiens, UniProt P33261). The data set can be described thus: Cytochrome panel assay with activity outcomes. Panel member name: p450-cyp2c19 Compounds with AC50 equal or less than 10 uM are considered active. The data set is classed as functional.
The target in another data set is Cytochrome P450 2D6 (Homo sapiens, UniProt P10635).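 Also: CYP2D6 member of a cytochrome P450 panel assay.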

The text below walks through data of ChEMBL document CHEMBL1201862, “PubChem BioAssay data set” (2004).

“Also recorded” adds a separate entry of the source. Active and inactive are the calls of the source.

Usually CC50 stands for the concentration at which the toxic effect on the cells reaches its halfway point. In general, EC50 refers to the concentration giving half of the maximal effect. In general, AC50 refers to the concentration giving half of the maximal activity seen.

T4 sequence (P63165 whole entry): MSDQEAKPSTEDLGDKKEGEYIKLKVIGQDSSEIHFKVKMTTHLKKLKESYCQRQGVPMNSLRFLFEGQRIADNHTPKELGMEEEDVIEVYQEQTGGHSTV
Sequence of Cytochrome P450 2C19 (P33261 whole entry): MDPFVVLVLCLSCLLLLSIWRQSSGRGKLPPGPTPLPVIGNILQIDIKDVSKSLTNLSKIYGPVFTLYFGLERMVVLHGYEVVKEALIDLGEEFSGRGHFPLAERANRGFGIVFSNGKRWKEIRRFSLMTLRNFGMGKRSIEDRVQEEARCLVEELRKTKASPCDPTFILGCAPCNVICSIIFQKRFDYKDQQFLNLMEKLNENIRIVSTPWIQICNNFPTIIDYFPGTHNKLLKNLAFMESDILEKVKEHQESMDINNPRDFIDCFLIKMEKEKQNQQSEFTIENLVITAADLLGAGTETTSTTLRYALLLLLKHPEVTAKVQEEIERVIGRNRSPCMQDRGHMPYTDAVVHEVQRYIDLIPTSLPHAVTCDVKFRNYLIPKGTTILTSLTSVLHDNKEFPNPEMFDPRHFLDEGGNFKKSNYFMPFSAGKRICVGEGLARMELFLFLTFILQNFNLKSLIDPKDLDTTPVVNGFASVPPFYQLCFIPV
Sequence of Cytochrome P450 2D6 (P10635 whole entry): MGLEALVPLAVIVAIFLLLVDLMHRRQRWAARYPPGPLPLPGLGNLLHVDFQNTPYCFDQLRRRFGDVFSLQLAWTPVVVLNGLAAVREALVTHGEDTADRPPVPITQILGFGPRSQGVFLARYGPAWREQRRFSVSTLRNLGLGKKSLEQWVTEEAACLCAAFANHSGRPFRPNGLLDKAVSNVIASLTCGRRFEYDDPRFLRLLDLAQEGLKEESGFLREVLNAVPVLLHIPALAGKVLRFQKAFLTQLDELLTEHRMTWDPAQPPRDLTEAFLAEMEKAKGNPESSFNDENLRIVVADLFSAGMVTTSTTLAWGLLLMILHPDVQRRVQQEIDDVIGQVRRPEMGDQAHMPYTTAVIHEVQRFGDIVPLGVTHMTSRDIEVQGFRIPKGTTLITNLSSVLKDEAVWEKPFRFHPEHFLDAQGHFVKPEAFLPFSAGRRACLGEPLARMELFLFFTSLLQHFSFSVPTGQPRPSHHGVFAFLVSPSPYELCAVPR
Sequence of 1-phosphatidylinositol 4,5-bisphosphate phosphodiesterase gamma-1 (P19174 whole entry): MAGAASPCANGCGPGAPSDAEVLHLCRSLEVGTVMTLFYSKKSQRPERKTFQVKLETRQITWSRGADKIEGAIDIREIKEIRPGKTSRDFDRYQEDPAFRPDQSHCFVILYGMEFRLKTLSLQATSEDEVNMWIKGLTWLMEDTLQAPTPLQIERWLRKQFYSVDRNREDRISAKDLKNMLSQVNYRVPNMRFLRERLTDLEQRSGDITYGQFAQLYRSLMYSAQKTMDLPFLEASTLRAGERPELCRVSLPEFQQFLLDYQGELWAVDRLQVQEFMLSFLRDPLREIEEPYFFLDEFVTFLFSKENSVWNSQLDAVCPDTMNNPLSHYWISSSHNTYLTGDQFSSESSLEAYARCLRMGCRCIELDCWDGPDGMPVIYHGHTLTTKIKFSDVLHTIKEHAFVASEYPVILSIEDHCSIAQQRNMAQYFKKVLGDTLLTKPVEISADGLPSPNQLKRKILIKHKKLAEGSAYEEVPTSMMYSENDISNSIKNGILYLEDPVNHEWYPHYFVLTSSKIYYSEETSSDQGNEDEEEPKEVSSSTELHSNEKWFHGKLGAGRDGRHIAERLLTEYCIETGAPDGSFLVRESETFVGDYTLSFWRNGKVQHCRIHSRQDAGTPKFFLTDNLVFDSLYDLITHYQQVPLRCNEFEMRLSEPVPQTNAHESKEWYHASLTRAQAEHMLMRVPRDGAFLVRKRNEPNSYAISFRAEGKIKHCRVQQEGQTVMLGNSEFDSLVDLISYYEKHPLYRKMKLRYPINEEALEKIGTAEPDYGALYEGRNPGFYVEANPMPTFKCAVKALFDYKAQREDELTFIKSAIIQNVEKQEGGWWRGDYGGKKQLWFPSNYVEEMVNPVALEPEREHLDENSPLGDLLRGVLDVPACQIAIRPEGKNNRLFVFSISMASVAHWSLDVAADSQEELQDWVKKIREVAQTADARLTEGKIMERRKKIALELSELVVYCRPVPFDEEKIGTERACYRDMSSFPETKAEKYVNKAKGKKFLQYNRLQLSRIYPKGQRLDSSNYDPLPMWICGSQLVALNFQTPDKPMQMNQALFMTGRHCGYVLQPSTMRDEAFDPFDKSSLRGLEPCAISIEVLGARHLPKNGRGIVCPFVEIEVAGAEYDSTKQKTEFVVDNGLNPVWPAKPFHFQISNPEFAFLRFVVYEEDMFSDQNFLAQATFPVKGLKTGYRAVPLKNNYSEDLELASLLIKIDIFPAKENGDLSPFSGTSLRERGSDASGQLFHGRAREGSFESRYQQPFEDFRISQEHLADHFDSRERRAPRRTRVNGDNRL
Sequence of 1-phosphatidylinositol 4,5-bisphosphate phosphodiesterase beta-3 (Q01970 whole entry): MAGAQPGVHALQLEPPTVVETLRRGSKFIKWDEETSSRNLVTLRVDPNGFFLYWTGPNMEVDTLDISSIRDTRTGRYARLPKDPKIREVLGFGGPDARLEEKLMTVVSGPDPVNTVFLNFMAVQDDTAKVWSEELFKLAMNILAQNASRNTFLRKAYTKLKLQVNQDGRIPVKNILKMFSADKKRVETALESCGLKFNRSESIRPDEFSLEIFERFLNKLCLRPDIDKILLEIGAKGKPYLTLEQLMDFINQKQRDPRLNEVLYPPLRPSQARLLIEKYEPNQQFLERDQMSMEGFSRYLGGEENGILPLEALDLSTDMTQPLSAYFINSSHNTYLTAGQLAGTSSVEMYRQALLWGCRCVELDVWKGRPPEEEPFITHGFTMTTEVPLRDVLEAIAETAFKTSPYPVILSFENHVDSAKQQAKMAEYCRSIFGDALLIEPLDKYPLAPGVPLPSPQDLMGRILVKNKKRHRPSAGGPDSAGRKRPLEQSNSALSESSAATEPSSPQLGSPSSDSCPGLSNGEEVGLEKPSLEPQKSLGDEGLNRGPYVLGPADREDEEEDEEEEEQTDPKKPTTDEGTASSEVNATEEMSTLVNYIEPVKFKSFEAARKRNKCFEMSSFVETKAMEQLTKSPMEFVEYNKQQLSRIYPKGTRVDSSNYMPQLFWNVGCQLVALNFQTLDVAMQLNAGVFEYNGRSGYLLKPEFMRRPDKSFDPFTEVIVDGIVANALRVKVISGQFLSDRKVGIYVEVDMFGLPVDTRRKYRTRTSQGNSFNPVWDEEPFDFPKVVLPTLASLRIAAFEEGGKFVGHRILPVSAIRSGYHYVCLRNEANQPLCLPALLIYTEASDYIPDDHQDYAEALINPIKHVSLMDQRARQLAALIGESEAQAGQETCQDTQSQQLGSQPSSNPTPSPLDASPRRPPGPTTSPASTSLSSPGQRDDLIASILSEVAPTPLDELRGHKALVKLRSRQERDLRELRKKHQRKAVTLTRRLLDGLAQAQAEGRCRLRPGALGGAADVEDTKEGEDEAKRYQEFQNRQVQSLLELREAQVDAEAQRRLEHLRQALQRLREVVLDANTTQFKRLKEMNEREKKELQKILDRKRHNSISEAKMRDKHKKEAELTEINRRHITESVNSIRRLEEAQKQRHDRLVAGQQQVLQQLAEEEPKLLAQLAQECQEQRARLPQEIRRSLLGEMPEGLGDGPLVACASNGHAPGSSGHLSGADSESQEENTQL
Sequence of Intestinal-type alkaline phosphatase (Mus musculus, UniProt P24822) (P24822 whole entry): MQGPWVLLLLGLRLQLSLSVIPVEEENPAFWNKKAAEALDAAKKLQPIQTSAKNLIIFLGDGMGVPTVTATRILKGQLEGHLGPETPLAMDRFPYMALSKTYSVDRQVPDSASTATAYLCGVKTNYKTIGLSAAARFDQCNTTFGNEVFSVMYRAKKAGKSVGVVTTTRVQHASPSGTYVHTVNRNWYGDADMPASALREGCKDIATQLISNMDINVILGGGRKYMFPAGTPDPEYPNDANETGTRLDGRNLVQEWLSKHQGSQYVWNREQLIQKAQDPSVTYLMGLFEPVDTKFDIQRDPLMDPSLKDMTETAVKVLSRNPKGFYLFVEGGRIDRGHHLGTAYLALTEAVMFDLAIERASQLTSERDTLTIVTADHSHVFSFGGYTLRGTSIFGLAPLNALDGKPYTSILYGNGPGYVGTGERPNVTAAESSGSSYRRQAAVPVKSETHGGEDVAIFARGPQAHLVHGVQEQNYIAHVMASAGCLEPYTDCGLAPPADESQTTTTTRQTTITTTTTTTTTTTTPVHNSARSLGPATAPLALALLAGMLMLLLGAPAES
Sequence of NAD-dependent protein deacylase sirtuin-5, mitochondrial (Q9NXA8 whole entry): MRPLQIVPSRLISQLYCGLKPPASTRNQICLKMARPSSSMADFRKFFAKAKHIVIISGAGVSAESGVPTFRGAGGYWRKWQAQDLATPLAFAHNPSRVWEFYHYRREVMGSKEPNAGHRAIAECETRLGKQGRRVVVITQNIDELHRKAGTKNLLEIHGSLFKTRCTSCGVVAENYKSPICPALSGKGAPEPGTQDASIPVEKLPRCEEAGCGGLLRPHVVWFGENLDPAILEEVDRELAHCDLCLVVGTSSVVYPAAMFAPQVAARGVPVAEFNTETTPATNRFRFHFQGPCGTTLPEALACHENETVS
Sequence of Intestinal-type alkaline phosphatase (Homo sapiens, UniProt P09923) (P09923 whole entry): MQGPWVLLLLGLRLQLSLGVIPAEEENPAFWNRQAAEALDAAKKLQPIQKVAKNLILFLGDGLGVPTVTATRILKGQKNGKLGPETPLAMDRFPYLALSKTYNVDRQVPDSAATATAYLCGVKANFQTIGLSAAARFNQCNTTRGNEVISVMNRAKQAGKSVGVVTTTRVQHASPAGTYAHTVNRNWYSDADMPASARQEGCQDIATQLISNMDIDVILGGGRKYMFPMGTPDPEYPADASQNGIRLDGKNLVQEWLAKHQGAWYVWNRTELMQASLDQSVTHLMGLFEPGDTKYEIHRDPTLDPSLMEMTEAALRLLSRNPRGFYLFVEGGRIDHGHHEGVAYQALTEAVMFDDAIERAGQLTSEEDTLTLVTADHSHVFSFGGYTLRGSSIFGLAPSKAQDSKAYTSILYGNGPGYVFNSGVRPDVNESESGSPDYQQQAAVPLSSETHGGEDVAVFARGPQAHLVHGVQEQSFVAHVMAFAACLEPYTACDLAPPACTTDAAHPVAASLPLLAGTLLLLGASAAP

Turning to `Cc1cccnc1Nc1nc(-c2ccc(O)c(O)c2)cs1`, the IC50 was > 100 µM (inactive) in data set [1]; 9.5 µM (active) in data set [2]; > 51.1 µM (active) in data set [3]; 8.95 µM (active) in data set [5]; 4.03 µM (active) in data set [8]; > 100 µM (inactive) in data set [9]. Also, the CC50 is > 40 µM (active) in data set [4] and 21.2 µM (active) in [6]. The EC50 is 13.6 µM (active) in data set [7] and 13.3 µM (active) in data set [11]. Besides, in [10], the AC50 was > 20 µM (inactive).
As to `C[C@@H]1CN([C@@H](C)CO)C(=O)c2cccc(NC(=O)Nc3cccc4ccccc34)c2O[C@H]1CN(C)C(=O)Nc1ccc(C(F)(F)F)cc1`, the AC50 in [12] was 40.7 µM (active).
As for `C=CC1=C(C(=O)O)N2C(=O)[C@@H](NC(=O)/C(=N\OCC(=O)O)c3csc(N)n3)[C@H]2SC1` [CEFIXIME], in data set [13], the EC50 is 9.08 µM (active). The IC50 in data set [14] was 1.21 µM (active); in [15], > 122 µM (inactive); in [17], 1.48 µM (active); in data set [18], > 66.6 µM (inactive). Also, the AC50 in data set [16] was 17.9 µM (active).
`Nc1ccc(S(=O)(=O)Nc2ccnn2-c2ccccc2)cc1` [SULFAPHENAZOLE]: the AC50 result at Cytochrome P450 1A2 is “inactive”; on Cytochrome P450 2C19, “inactive; also recorded: inconclusive”; on Cytochrome P450 2D6, “inactive”.
